Reference: the supplement of paper PMC11061612

Tests used:
Assay in all cases: combination Emax (second highest fraction inhibited in the dose matrix, 72 h); higher = more inhibition; extreme values may be limits of the assay
[1] = tested on: MDA-MB-415 (Breast Carcinoma)
Summary of the method: (§1)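 Bliss excess equals the observed combination effect minus the expected value EA + EB − EA·EB, where EA and EB are the effects of each agent alone. Combination Emax is the second-highest inhibition within the matrix. Inhibition was scaled from CellTiter-Glo 2.0 luminescence, with 0 set by vehicle wells and 1 by blank wells, after 72 hours of two-drug dosing of cells plated in 1536-well plates.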

[2] = tested on: MS-1 (Small Cell Lung Carcinoma)
Summary of the method: as §1

[3] = tested on: NB1 (Neuroblastoma)
Summary of the method: as §1

[4] = tested on: KP-4 (Pancreatic Carcinoma)
Summary of the method: as §1

[5] = tested on: ES6 (Ewing's Sarcoma)
Summary of the method: as §1

[6] = tested on: RCC-JW (Kidney Carcinoma)
Summary of the method: as §1

[7] = tested on: CL-11 (Colorectal Carcinoma)
Summary of the method: as §1

[8] = tested on: NMC-G1 (Low Grade Glioma)
Summary of the method: as §1

[9] = tested on: NCI-H1963 (Small Cell Lung Carcinoma)
Summary of the method: as §1

[10] = tested on: SK-CO-1 (Colorectal Carcinoma)
Summary of the method: as §1

[11] = tested on: NCI-H2373 (Mesothelioma)
Summary of the method: as §1

[12] = tested on: SCC-4 (Oral Cavity Carcinoma)
Summary of the method: as §1

[13] = tested on: WM35 (Melanoma)
Summary of the method: as §1

[14] = tested on: OVCAR-3 (Ovarian Carcinoma)
Summary of the method: as §1

[15] = tested on: SNU-C2B (Colorectal Carcinoma)
Summary of the method: as §1

[16] = tested on: CPC-N (Small Cell Lung Carcinoma)
Summary of the method: as §1

[17] = tested on: AM-38 (Glioblastoma)
Summary of the method: as §1

[18] = tested on: UACC-257 (Melanoma)
Summary of the method: as §1

[19] = tested on: BxPC-3 (Pancreatic Carcinoma)
Summary of the method: as §1

[20] = tested on: C-33-A (Cervical Carcinoma)
Summary of the method: as §1

| SMILES | combination Emax [1] | combination Emax [2] | combination Emax [3] | combination Emax [4] | combination Emax [5] | combination Emax [6] | combination Emax [7] | combination Emax [8] | combination Emax [9] | combination Emax [10] | combination Emax [11] | combination Emax [12] | combination Emax [13] | combination Emax [14] | combination Emax [15] | combination Emax [16] | combination Emax [17] | combination Emax [18] | combination Emax [19] | combination Emax [20] |
| --- | --- | --- | --- | --- | --- | --- | --- | --- | --- | --- | --- | --- | --- | --- | --- | --- | --- | --- | --- | --- |
| Cc1cc2ncnn2cc1Nc1ncc2c(n1)n(C1CCOCC1)c(=O)n2C [AZD7648] + CN(C)CCCOc1ccc(-c2ccc3ncc4c(c3c2)n(C2CCOCC2)c(=O)n4C)cn1 [AZD0156] (first compound max 10 µM, 7x7, partner max 1 µM) | 0.504 | 0.309 | 0.238 | 0.23 | 0.37 | 0.339 | 0.255 | 0.207 | 0.211 | 0.309 | 0.566 | 0.219 | 0.129 | 0.116 | 0.311 | 0.368 | 0.417 | 0.186 | 0.176 | 0.372 |
| Cc1c2c(nn1C)CSCc1cc(n(C)n1)CSc1cc(c3ccccc3c1)OCCCc1c(C(=O)O)n(C)c3c-2c(Cl)ccc13 [AZD5991] + Cc1cc2ncnn2cc1Nc1ncc2c(n1)n(C1CCOCC1)c(=O)n2C [AZD7648] (first compound max 1 µM, 7x7, partner max 10 µM) | 0.619 | 0.564 | 0.211 | 0.263 | 0.334 | 0.319 | 0.133 | 0.171 | 0.334 | 0.279 | 0.409 | 0.458 | 0.207 | 0.272 | 0.158 | 0.245 | 0.615 | 0.244 | 0.231 | 0.416 |
| CN(CCO)CC[C@H](CSc1ccccc1)Nc1ccc(S(=O)(=O)NC(=O)c2ccc(N3CCC([C@@H](O)c4ccccc4-c4ccc(Cl)cc4)CC3)cc2)cc1S(=O)(=O)C(F)(F)F [AZD4320] + C[C@@H]1COCCN1C2=NC(=NC(=C2)C3(CC3)[S@](=N)(=O)C)C4=C5C=CNC5=NC=C4 [AZD6738] (first compound max 1 µM, 7x7, partner max 10 µM) | 0.879 | 0.934 | 0.936 | 0.487 | 0.665 | 0.79 | 0.895 | 0.876 | 1 | 0.928 | 0.672 | 0.872 | 0.367 | 0.555 | 0.636 | 1 | 0.95 | 0.186 | 0.751 | 0.928 |
| COc1cccc(OCCCN)c1-c1cc(Nc2cnc(C#N)cn2)n[nH]1 [Prexasertib] + Cc1cc2ncnn2cc1Nc1ncc2c(n1)n(C1CCOCC1)c(=O)n2C [AZD7648] (first compound max 1 µM, 7x7, partner max 10 µM) | 0.413 | 0.971 | 0.78 | 0.429 | 0.625 | 0.501 | 0.788 | 0.327 | 0.975 | 0.593 | 0.531 | 0.609 | 0.772 | 0.784 | 0.706 | 1 | 0.845 | 0.321 | 0.68 | 0.882 |
| CN(C)CCCOc1ccc(-c2ccc3ncc4c(c3c2)n(C2CCOCC2)c(=O)n4C)cn1 [AZD0156] + C[C@@H]1COCCN1C2=NC(=NC(=C2)C3(CC3)[S@](=N)(=O)C)C4=C5C=CNC5=NC=C4 [AZD6738] (first compound max 1 µM, 7x7, partner max 10 µM) | 0.395 | 0.873 | 0.933 | 0.451 | 0.557 | 0.597 | 0.767 | 0.269 | 0.804 | 0.721 | 0.588 | 0.702 | 0.771 | 0.271 | 0.681 | 0.952 | 0.868 | 0.145 | 0.475 | 0.886 |
| CN(CCO)CC[C@H](CSc1ccccc1)Nc1ccc(S(=O)(=O)NC(=O)c2ccc(N3CCC([C@@H](O)c4ccccc4-c4ccc(Cl)cc4)CC3)cc2)cc1S(=O)(=O)C(F)(F)F [AZD4320] + CCN(CCO)CCCOc1ccc2c(Nc3cc(CC(=O)Nc4cccc(F)c4)[nH]n3)ncnc2c1 [AZD2811] (first compound max 1 µM, 7x7, partner max 1 µM) | 0.619 | 0.597 | 0.684 | 0.368 | 0.161 | 0.661 | 0.0894 | 0.718 | 1 | 0.889 | 0.125 | 0.861 | 0.136 | 0.234 | 0.168 | 0.971 | 0.932 | 0.161 | 0.236 | 0.151 |
